Results on 19 molecules are retold here after US20230011869A1 (Hoffmann-La Roche Inc., priority 2018, published 2023).

Counter-ions that a name gives are not always drawn. Like-named read-outs stand apart in the source and are kept apart here.

This assay has as its system Acinetobacter baumannii ATCC17978. The assay is described as follows: Antimicrobial susceptibility testing: 90% growth inhibitory concentration (IC90) determination, Iso-Sensitest broth. Format: cell-based. In a few lines: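 A. baumannii ATCC17978 grown in Iso-Sensitest broth across 10 compound concentrations at 35±2 °C.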
The mark [1] stands for this setting: 90% growth inhibitory concentration, Acinetobacter baumannii ATCC17978, Iso-Sensitest broth, OD 600 nm over 16 h, read-out: ATCC17978 IC90.
The mark [2] stands for this setting: Acinetobacter baumannii, ATCC17978, 16 h, read-out: ATCC17978 IC90, 90% growth inhibitory concentration, Acinetobacter baumannii ATCC17978, Iso-Sensitest broth, OD 600 nm over 16 h.

In the case of `COc1ccc(-c2cnc3c(Nc4ccc(C(=O)N5CCC(O)(CN)CC5)c(C)c4)nccn23)cc1F` [Example 71, [4-(aminomethyl)-4-hydroxypiperidin-1-yl]-[4-[[3-(3-fluoro-4-methoxyphenyl)imidazo[1,2-a]pyrazin-8-yl]amino]-2-methylphenyl]methanone;2,2,2-trifluoroacetic acid], the IC90 under setting [1] was 350 nM. Take `Cc1cc(Nc2nccn3c(-c4ccc(O[C@H](C)C#N)c(F)c4F)cnc23)ccc1C(=O)N1CCN(C(=O)C2(O)CCNCC2)CC1` [Example 560, (2R)-2-[2,3-difluoro-4-[8-[4-[4-(4-hydroxypiperidine-4-carbonyl)piperazine-1-carbonyl]-3-methyl-anilino]imidazo[1,2-a]pyrazin-3-yl]phenoxy]propanenitrile formate]: under setting [2], the IC90 is 746 nM.

For the molecule `Cc1cc(Nc2nccn3c(-c4ccc(OC(F)F)cc4)cnc23)ccc1C(=O)N1CCCC(C(N)=O)C1` (stereo not shown) [Example 10, 1-(4-((3-(4-(difluoromethoxy)phenyl)imidazo[1,2-a]pyrazin-8-yl)amino)-2-methylbenzoyl)piperidine-3-carboxamide], the IC90 under setting [1] is 1600 nM.

Take `Cc1cc(Nc2nccn3c(-c4ccc(OCC#N)c(F)c4F)cnc23)ccc1C(=O)N1CCN(C(=O)NCCN)CC1` [Example 139, N-(2-aminoethyl)-4-[4-[[3-[4-(cyanomethoxy)-2,3-difluoro-phenyl]imidazo[1,2-a]pyrazin-8-yl]amino]-2-methyl-benzoyl]piperazine-1-carboxamide formate]: under setting [1], the IC90 was found to be 130 nM. In the case of `Cc1cc(Nc2nccn3c(-c4ccc(OC(F)F)cc4)cnc23)ccc1C(=O)N1CCC(C(=O)NCC(O)CN)CC1` (stereo not shown) [Example 299, N-(3-amino-2-hydroxypropyl)-1-[4-[[3-[4-(difluoromethoxy)phenyl]imi-dazo[1,2-a]pyrazin-8-yl]amino]-2-methylbenzoyl]piperidine-4-carboxamide; hydrochloride], the IC90 under setting [2] is 200 nM. Still for that read-out and setting: with `Cc1cc(Nc2nccn3c(-c4ccc(OC(F)F)cc4)cnc23)ccc1C(=O)N1CCC2(CCNCC2)CC1` [Example 359, 3,9-diazaspiro[5.5]undecan-3-yl-[4-[[3-[4-(difluoromethoxy)phenyl]imi-dazo[1,2-a]pyrazin-8-yl]amino]-2-methylphenyl]methanone; hy-drochloride] the figure was 410 nM. Regarding `COc1ccc(-c2cnc3c(Nc4ccc(C(=O)N5CCN(c6nccn6C)CC5)c(C)c4)nccn23)cc1F` [Example 41, (4-((3-(3-fluoro-4-methoxyphenyl)imidazo[1,2-a]pyrazin-8-yl)amino)-2-methylphenyl)(4-(1-methyl-1H-imidazol-2-yl)piperazin-1-yl)methanone], the IC90 under setting [1] worked out at 110 nM.

As to `Cc1cc(Nc2nccn3c(-c4ccc(OC(F)F)cc4)cnc23)ccc1C(=O)N1CCN(C(N)=O)CC1` [Example 74, 4-(4-((3-(4-(difluoromethoxy)phenyl)imidazo[1,2-a]pyrazin-8-yl)amino)-2-methylbenzoyl)piperazine-1-carboxamide], the IC90 under setting [1] was 71 nM. Consider `Cc1cc(Nc2nccn3c(-c4ccc(OC(F)F)cc4)cnc23)ccc1C(=O)N1CCN(C2=NCCN2)CC1` [Example 67], for which, under setting [1], the IC90 was found to be 120 nM. For `COc1ccc(-c2cnc3c(Nc4ccc(C(=O)N5CCC(CN)CC5)c(C)c4)nccn23)cc1F` [Example 34, (4-(aminomethyl)piperidin-1-yl)(4-((3-(3-fluoro-4-methoxyphenyl)imidazo[1,2-a]pyrazin-8-yl)amino)-2-methylphenyl)methanone hydrochloride], the IC90 under setting [2] is 190 nM. On the same count and under the same terms, the same measure for `Cc1cc(Nc2nccn3c(-c4ccc(OC(F)F)cc4)cnc23)ccc1C(=O)N1CCN(C(=O)c2ccc(CN3CCNCC3)cc2)CC1` [Example 337, [4-[4-[[3-[4-(difluoromethoxy)phenyl]imi-dazo[1,2-a]pyrazin-8-yl]amino]-2-methylbenzoyl]piperazin-1-yl]-[4-(piperazin-1-ylmethyl)phenyl]methanone; hydrochloride]: 470 nM; for `Cc1cc(Nc2nccn3c(-c4ccc(OC(F)F)cc4)cnc23)ccc1C(=O)N1CCN(C(=O)C(O)CO)CC1` (stereo not shown) [Example 346, 1-[4-[4-[[3-[4-(difluoromethoxy)phenyl]imi-dazo[1,2-a]pyrazin-8-yl]amino]-2-methylbenzoyl]piperazin-1-yl]-2,3-dihydroxypropan-1-one]: 620 nM. For `COc1ccc(-c2cnc3c(Nc4ccc(C(=O)N5CCC(C(=O)N[C@@H]6CCNC6)CC5)c(C)c4)nccn23)c(F)c1F` [Example 63, (R)-1-(4-((3-(2,3-difluoro-4-methoxyphenyl)imidazo[1,2-a]pyrazin-8-yl)amino)-2-methylbenzoyl)-N-(pyrrolidin-3-yl)piperidine-4-carboxamide hydrochloride], the IC90 under setting [1] is 170 nM. As to `Cc1cc(Nc2nccn3c(-c4ccc(OC(F)F)cc4)cnc23)ccc1C(=O)N1CCC(C(=O)N2CCCNCC2)CC1` [Example 325, [4-(1,4-diazepane-1-carbonyl)piperidin-1-yl]-[4-[[3-[4-(difluoromethoxy)phenyl]imi-dazo[1,2-a]pyrazin-8-yl]amino]-2-methylphenyl]methanone; hy-drochloride], the IC90 under setting [2] stood at 340 nM.

Turning to `CNCC(=O)NCC1CCN(C(=O)c2ccc(Nc3nccn4c(-c5ccc(OCC#N)c(F)c5F)cnc34)cc2C)CC1` [Example 102, N-[[1-[4-[[3-[4-(cyanomethoxy)-2,3-difluoro-phenyl]imidazo[1,2-a]pyrazin-8-yl]amino]-2-methyl-benzoyl]-4-piperidyl]methyl]-2-(methylamino)acetamide], the IC90 under setting [1] was 140 nM.

As for `Cc1cc(Nc2nccn3c(-c4ccc(OCC#N)c(F)c4F)cnc23)ccc1C(=O)N1CCN(C(=O)C2CNC2)CC1` [Example 504, 2-[4-[8-[4-[4-(azetidine-3-carbonyl)piperazine-1-carbonyl]-3-methylanilino]imidazo[1,2-a]pyrazin-3-yl]-2,3-difluorophenoxy]acetonitrile; formic acid], under setting [1], the IC90 was determined as 490 nM. For `COc1ccc(-c2cnc3c(Nc4ccc(C(=O)N5CCN(C(=O)N6CCO[C@H](CN)C6)CC5)c(C)c4)nccn23)c(F)c1F` [Example 140, [4-[(2R)-2-(aminomethyl)morpholine-4-carbonyl]piperazin-1-yl]-[4-[[3-(2,3-difluoro-4-methoxy-phenyl)imidazo[1,2-a]pyrazin-8-yl]amino]-2-methyl-phenyl]methanone formate], the IC90 under setting [1] came out at 190 nM. Regarding `COc1ccc(-c2cnc3c(Nc4ccc(C(=O)N5CCC(CN(C)C)CC5)c(C)c4)nccn23)c(F)c1F` [Example 29, (4-((3-(2,3-difluoro-4-methoxyphenyl)imidazo[1,2-a]pyrazin-8-yl)amino)-2-methylphenyl)(4-((dimethylamino)methyl)piperidin-1-yl)methanone], under setting [1], the IC90 is 120 nM. Consider `CO[C@@H]1CNC[C@H]1NC(=O)N1CCN(C(=O)c2ccc(Nc3nccn4c(-c5ccc(OC(F)F)cc5)cnc34)cc2C)CC1` (racemic) [Example 171, 4-[4-[[3-[4-(difluoromethoxy)phenyl]imidazo[1,2-a]pyrazin-8-yl]amino]-2-methyl-benzoyl]-N-[rac-(3R,4R)-4-methoxypyrrolidin-3-yl]piperazine-1-carboxamide hydrochloride], for which, under setting [1], the IC90 amounted to 190 nM.
